17 compounds from ChEMBL document CHEMBL5331048, “Recent progress toward developing axial chirality bioactive compounds” (Eur J Med Chem, 2022) can be followed below.

The subject of one assay is HCT-116. Description: Anticancer activity against human HCT-116 cells assessed as cell growth inhibition. Format: functional, cell-based.
The test system of assay [1] is Staphylococcus aureus. Description: Antibacterial activity against methicillin-resistant Staphylococcus aureus assessed as bacterial growth inhibition. In kind it is functional.
Assay [2] deals with Streptococcus iniae. Description: Antibacterial activity against Streptococcus iniae FP 5228 assessed as bacterial growth inhibition. Format: functional.
In assay [3] the test system is Streptococcus iniae. Description: Potency index, ratio of oxytetracycline MIC to test compound MIC for antibacterial activity against Streptococcus iniae FP 5228. In kind it is functional.
The subject of a further assay is A-375. Description: Anticancer activity against human A-375 cells assessed as cell growth inhibition measured after 24 hrs by MTT assay. In kind it is functional, cell-based. The conditions noted are these: A-375, 24 h.
Assay [4] in a line: Anticancer activity against human QGP-1 cells assessed as cell growth inhibition. Format: functional, cell-based.
For the next assay, the system named is Caco-2. Description: Anticancer activity against human Caco-2 cells assessed as cell growth inhibition measured after 72 hrs by MTT assay. In kind it is functional, cell-based. The conditions noted are these: Caco-2, 72 h.
Assay [5] concerns Bacillus subtilis. Description: Antibacterial activity against Bacillus subtilis ATCC 6633 assessed as bacterial growth inhibition. Format: functional, organism-based.
In assay [6] the test system is Staphylococcus aureus. Description: Antibacterial activity against Staphylococcus aureus ATCC 25923 assessed as bacterial growth inhibition. Format: functional, organism-based.
A further assay concerns Escherichia coli. Description: Antibacterial activity against Escherichia coli ATCC 25922 assessed as bacterial growth inhibition. In kind it is functional.
Assay [7] has as its system Staphylococcus aureus. Description: Antibacterial activity against Staphylococcus aureus ATCC 29213 assessed as bacterial growth inhibition. In kind it is functional.
The test system of assay [8] is Bacillus subtilis. Description: Antibacterial activity against Bacillus subtilis SCSIO BS01 assessed as bacterial growth inhibition. In kind it is functional.
The next assay has as its system Bacillus thuringiensis. Description: Antibacterial activity against Bacillus thuringiensis SCSIO BT01 assessed as bacterial growth inhibition. Format: functional.
For assay [9], the system named is Plasmodium berghei. Description: Antimalarial activity against Plasmodium berghei ANKA assessed as reduction in parasite growth measured after 24 hrs by 3[H]-hypoxanthine incorporation assay. In kind it is functional, organism-based.
The test system of a further assay is Plasmodium falciparum. Description: Antimalarial activity against Plasmodium falciparum NF 54 clone A1A9 assessed as reduction in parasite growth measured after 24 hrs by 3[H]-hypoxanthine incorporation assay. In kind it is functional, organism-based. The conditions noted are these: NF 54 clone A1A9, 24 h.
Assay [10] has as its system Plasmodium berghei. Description: Antimalarial activity against Plasmodium berghei assessed as reduction in parasite growth. In kind it is functional, organism-based.
The test system of the next assay is HGC-27. Description: Anticancer activity against human HGC-27 cells assessed as cell growth inhibition measured after 24 hrs by CCK-8 assay. In kind it is functional, cell-based. As to conditions: HGC-27, 24 h.
The nature of assay [11]: Anticancer activity against human Leucocyte assessed as cell break at 2 x 10^-9M measured after 12 hrs. In kind it is functional. As to conditions: dose 2 10^-9M.

Values after ≈ are worked out from the molar mass of the structure shown.

As for `O=C(c1ccccc1O)c1[nH]c(Cl)c(Cl)c1-n1c(C(=O)c2ccccc2O)cc(Cl)c1Cl`, the IC50 in the assay with HCT-116 was found to be 8.8 µM. Further, in the assay with Staphylococcus aureus [1], the MIC90 stood at 0.61 µM (≈ 0.311 µg/mL).

With `COC(=O)C[C@@H]1Cc2cc3c(-c4c(OC)cc(O)c5c(O)c6c(cc45)C[C@@H](CC(=O)OC)OC6=O)c(OC)cc(O)c3c(O)c2C(=O)O1`, in the assay on Streptococcus iniae [2], the MIC was 0.31 µg/mL (≈ 0.468 µM). For the same compound, the Ratio in the assay on Streptococcus iniae [3] was found to be 100.

Turning to `COc1ccc2ccc(O)c(-c3c(Br)c(C4CC4)nn3P(=O)(c3ccccc3)c3ccccc3)c2c1`, in the assay on A-375, the IC50 came to 2.57 µM.

Take `O=C(c1ccccc1O)c1[nH]c(Cl)c(Cl)c1-n1c(Cl)c(Cl)c(Br)c1C(=O)c1ccccc1O`: in the assay on HCT-116, the IC50 turned out to be 9 µM. Besides, the MIC90 in the assay with Staphylococcus aureus [1] amounted to 1.1 µM (≈ 0.648 µg/mL).

Consider `COC(=O)c1cc(-c2ccc(F)cc2)n(-n2c(C(=O)OC)cc3ccccc32)c1C`, for which, in assay [4], the IC50 turned out to be 18.7 µg/mL (≈ 46.1 µM).

For the compound `COC(=O)c1cc(-c2cccc(OC)c2)n(-n2c(-c3ccc4ccccc4c3)cc(C(=O)OC)c2C)c1C`, the concentration for half-maximal inhibition (IC50) in assay [4] is 18.7 µg/mL (≈ 36.8 µM).

Regarding `O=C1N[C@@H]2[C@H]3NC(=O)[C@@H]4Cc5cc6ccccc6n5-n5cc(c6ccccc65)C[C@@H]1N[C@H]2[C@@H]3N4`, in the assay on Caco-2, the IC50 came out at 76 µM.

`COC(=O)c1cc(-c2ccccc2)n(-n2c(-c3ccc4c(c3)OCO4)cc(C(=O)OC)c2C)c1C`: the IC50 in assay [4] was determined as 18.7 µg/mL (≈ 39.6 µM).

Consider `COC(=O)[C@@]12Oc3cc(C)c(-c4c(C)cc5c(c4O)C(=O)C4C(O)=CC[C@@H](O)[C@]4(C(=O)OC)O5)c(O)c3C(=O)C1=C(O)CC[C@H]2O` (stereo in doubt; 4), for which the IC50 amounted to 2.1 µM with Bacillus subtilis [5] and 6 µM in the assay on Staphylococcus aureus [6].

In the case of `COC(=O)[C@@]12Oc3cc(C)c(-c4c(C)cc5c(c4O)C(=O)C4C(O)=CC[C@@H](O)[C@]4(C(=O)OC)O5)c(O)c3C(=O)C1=C(O)CC[C@H]2O` (stereo in doubt; 5), the figures for the IC50 in the assay on Bacillus subtilis [5] and in the assay on Staphylococcus aureus [6] were 0.7 µM and 18 µM, respectively.

As to `C[C@@]1(C(=O)O)[C@@H](O)CC[C@]2(C)c3cc4c5ccccc5n(-n5c6ccccc6c6cc7c(cc65)CC[C@H]5[C@](C)(C(=O)O)[C@@H](O)CC[C@]75C)c4cc3CC[C@@H]12` (stereo in doubt; 66), the MIC was 8 µg/mL (≈ 11 µM) in the assay on Escherichia coli (Escherichia coli, ATCC 25922, read-out: MIC); 8 µg/mL (≈ 11 µM) with Staphylococcus aureus [7] (Staphylococcus aureus, ATCC 29213, read-out: MIC); 16 µg/mL (≈ 22.1 µM) in the assay on Bacillus subtilis [8] (Bacillus subtilis, SCSIO BS01, read-out: MIC); 4 µg/mL (≈ 5.52 µM) in the assay on Bacillus thuringiensis (Bacillus thuringiensis, SCSIO BT01, read-out: MIC).

Regarding `C[C@@]1(C(=O)O)[C@@H](O)CC[C@]2(C)c3cc4c5ccccc5n(-n5c6ccccc6c6cc7c(cc65)CC[C@H]5[C@](C)(C(=O)O)[C@@H](O)CC[C@]75C)c4cc3CC[C@@H]12` (stereo in doubt; 67), the MIC was determined as 8 µg/mL (≈ 11 µM) in the assay with Escherichia coli, 16 µg/mL (≈ 22.1 µM) with Staphylococcus aureus [7], 16 µg/mL (≈ 22.1 µM) in the assay on Bacillus subtilis [8] and 8 µg/mL (≈ 11 µM) with Bacillus thuringiensis.

With `COc1cc(C)c(-c2ccc(O)c3c2C[C@@H](C)N[C@@H]3C)c2cccc(O)c12` [DIONCOPHYLLINE C], the IC50 was found to be 0.015 µg/mL (≈ 0.0413 µM) with Plasmodium berghei [9] and 0.014 µg/mL (≈ 0.0385 µM) in the assay on Plasmodium falciparum.

For the compound `COc1cc(C)cc2c(-c3c(O)cc(O)c4c3C[C@@H](C)N[C@@H]4C)ccc(O)c12` [KORUPENSAMINE A], the IC50 in the assay on Plasmodium berghei [10] came out at 0.56 µg/mL (≈ 1.48 µM).

Take `CN(C)[C@@H]1C(O)=C(C(N)=O)C(=O)[C@@]2(O)C(O)=C3C(=O)c4c(O)cccc4[C@@](C)(O)[C@H]3[C@H](O)[C@@H]12` [OXYTETRACYCLINE]: the MIC with Streptococcus iniae [2] was determined as 40 µg/mL (≈ 86.9 µM).

Take `c1ccc(C(OCCN2CCCCC2)c2ccccc2)cc1` [PERASTINE]: the IC50 in the assay with HGC-27 amounted to 14.4 µM.

In the case of `COC1=C(N)C(=O)c2nc(-c3nc(C(=O)O)c(C)c(-c4ccc(OC)c(OC)c4O)c3N)ccc2C1=O` [STREPTONIGRIN], the Activity in [11] amounted to 2.82.
